According to PubChem BioAssay AID1963871 (Molecular Pharmacology Branch, DTP, NCI, 2024):

System: KRAS-mutant PDC multicell tumor spheroid viability
Experiment: Anticancer human tumor 521955-158-R2-J5-PDC patient-derived pancreatic carcinoma cell line growth inhibition [KRAS2]
Conditions: for viability, T/C: stronger effect = lower value
Description: Multicellular complex tumor spheroid response to RAS pathway inhibitors in combination with a targeted agents in patient-derived cell lines with oncogenic KRAS variants from multiple cancer types
A high-throughput screen of multi-cell type tumor spheroids was designed to identify active combinations of targeted small molecules and KRAS pathway inhibitors. Complex spheroids include a stromal component modeled by human endothelial cells (HUVEC) and fibroblasts modeled by human mesenchymal stem cells (MSCs). The concentration ranges selected for each drug and investigational agent were based upon clinically achievable concentrations if the clinical Cmax of the agent was known.
Compounds. The drugs and investigational agents: BI-3406 (NSC825286), BAY-293 (NSC824723), batoprotafib (TNO155; NSC825523), sotorasib (AMG 510; NSC818433), MRTX1257 (NSC819558), elimusertib (BAY 1895344; NSC800525), molibresib (GSK525762; NSC774829), temuterkib (LY3214996; NSC803410), venetoclax (NSC766270), alisertib (NSC759677), olaparib (NSC753686), talazoparib (NSC767125), erdafitinib (NSC781556), ipatasertib (NSC767898), cabozantinib (NSC761068), nintedanib (NSC756659), abemaciclib (NSC768073), docetaxel (NSC628503), trametinib (NSC758246), and sapanisertib (NSC764658) were obtained from the National Cancer Institute (NCI) Developmental Therapeutics Program Chemical Repository. The FDA-approved anticancer drug set is available from the Developmental Therapeutics Program. […] The stock solutions were prepared in dimethyl sulfoxide (DMSO, Sigma-Aldrich, St. Louis, MO, cat. D2650) at 800-fold the tested concentration and stored at -70 degrees C prior to their use. All drugs and investigational agents were tested over a range starting from a high concentration at or near the clinical Cmax and decreasing in half-log increments. If the clinical Cmax for an agent had not been determined, the highest concentration tested was 10 microM.
Cell Culture. All cells were maintained in an incubator at 37 degrees C and 5% CO2 with 95% humidity. The PDC lines were cultured according to standard operating procedures established by the NCI PDMR (https://pdmr.cancer.gov/sops/default.htm). Briefly, all PDCs were thawed and cultured in Matrigel-coated flasks prepared with a working solution of 1X Ham's F-12 nutrient mix, without supplementation (Invitrogen, Waltham, MA, cat. 11765054), 100 U/mL penicillin-streptomycin (Invitrogen, cat. 15140122), and 2.5% Matrigel (Corning Inc., Corning, NY, cat. 354248) for the first three passages. All PDCs were cultured in complete DMEM/F-12 media containing advanced DMEM/F-12 (Invitrogen, cat. 12634028), 4.9% defined fetal bovine serum, heat inactivated (HyClone Laboratories Inc., Logan, UT, cat. SH30070.03HI), 389 ng/mL hydrocortisone (Sigma-Aldrich, cat. H4001), 9.7 ng/mL human EGF recombinant protein (Invitrogen, cat. PHG0313), 23.4 microg/mL adenine (Sigma-Aldrich, cat. A2786), 97.3 U/mL penicillin-streptomycin (Invitrogen, cat. 15140122), 1.9 mM L-glutamine (Invitrogen, cat. 25030081), and 9.7 microM Y-27632 dihydrochloride (Tocris Bioscience, Bristol, United Kingdom, cat. 1254). The PDCs were cultured in complete DMEM/F12 media without 9.7 microM Y-27632 dihydrochloride for at least two passages prior to the screen. The established cell line HOP-62 was cultured in RPMI 1640 medium, HEPES (Invitrogen, cat. 22400105) with 10% defined fetal bovine serum (HyClone Laboratories Inc., cat. SH30070.03) and 2 mM L-glutamine (Invitrogen, cat. 25030081). The pooled donor HUVEC were cultured in endothelial cell growth medium 2 (PromoCell, Heidelberg, Germany, cat. C-22011) and the hMSC were cultured in mesenchymal stem cell growth medium 2 (PromoCell, cat. C-28009). For all experiments, HUVEC and hMSC were used at passages </=5, while the malignant cell lines were used at passages </=15. […]

[1] = curve of first compound, second compound 0.1 µM
[2] = curve of first compound, second compound 0.316 µM
[3] = curve of first compound, second compound 1 µM
[4] = curve of first compound, second compound 3.16 µM
[5] = curve of first compound, second compound 10 µM
[6] = second compound 0.1 µM, first compound 0.0316 µM
[7] = second compound 0.1 µM, first compound 0.1 µM
[8] = second compound 0.1 µM, first compound 0.316 µM
[9] = second compound 0.1 µM, first compound 1 µM
[10] = second compound 0.1 µM, first compound 3.16 µM
[11] = second compound 0.1 µM, first compound 10 µM
[12] = second compound 0.316 µM, first compound 0.0316 µM
[13] = second compound 0.316 µM, first compound 0.1 µM
[14] = second compound 0.316 µM, first compound 0.316 µM
[15] = second compound 0.316 µM, first compound 1 µM
[16] = second compound 0.316 µM, first compound 3.16 µM
[17] = second compound 0.316 µM, first compound 10 µM
[18] = second compound 1 µM, first compound 0.0316 µM
[19] = second compound 1 µM, first compound 0.1 µM
[20] = second compound 1 µM, first compound 0.316 µM
[21] = second compound 1 µM, first compound 1 µM
[22] = second compound 1 µM, first compound 3.16 µM
[23] = second compound 1 µM, first compound 10 µM
[24] = second compound 3.16 µM, first compound 0.0316 µM
[25] = second compound 3.16 µM, first compound 0.1 µM
[26] = second compound 3.16 µM, first compound 0.316 µM
[27] = second compound 3.16 µM, first compound 1 µM
[28] = second compound 3.16 µM, first compound 3.16 µM
[29] = second compound 3.16 µM, first compound 10 µM
[30] = second compound 10 µM, first compound 0.0316 µM
[31] = second compound 10 µM, first compound 0.1 µM
[32] = second compound 10 µM, first compound 0.316 µM
[33] = second compound 10 µM, first compound 3.16 µM
[34] = second compound 10 µM, first compound 10 µM
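Also: viability read after seven days of drug exposure.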

## CC1OCC2(CCN(c3cnc(Sc4ccnc(N)c4Cl)c(N)n3)CC2)C1N (centres undefined) + COc1cc2nc(C)nc(NC(C)c3cc(N)cc(C(F)(F)F)c3)c2cc1OC1CCOC1
[1]
  IC50: > 10000 nM
[2]
  IC50: > 10000 nM
[3]
  IC50: > 10000 nM
[4]
  IC50: > 10000 nM
[5]
  IC50: 4270 nM
[6]
  viability, T/C: 87.6%
[7]
  viability, T/C: 83.6%
[8]
  viability, T/C: 77.6%
[9]
  viability, T/C: 75.9%
[10]
  viability, T/C: 72.5%
[11]
  viability, T/C: 56.6%
[12]
  viability, T/C: 82.3%
[13]
  viability, T/C: 97.1%
[14]
  viability, T/C: 85.9%
[15]
  viability, T/C: 71.9%
[16]
  viability, T/C: 64.2%
[17]
  viability, T/C: 55.4%
[18]
  viability, T/C: 105%
[19]
  viability, T/C: 92.1%
[20]
  viability, T/C: 82.4%
[21]
  viability, T/C: 74.4%
[22]
  viability, T/C: 72.1%
[23]
  viability, T/C: 62.5%
[24]
  viability, T/C: 111%
[25]
  viability, T/C: 102%
[26]
  viability, T/C: 88%
[27]
  viability, T/C: 83.8%
[28]
  viability, T/C: 80.3%
[29]
  viability, T/C: 84.6%
[30]
  viability, T/C: 90.4%
[31]
  viability, T/C: 84.7%
[32]
  viability, T/C: 76.9%
Second compound 10 µM, first compound 1 µM
  viability, T/C: 65.9%
[33]
  viability, T/C: 58.5%
[34]
  viability, T/C: 35%

## CN(C)C/C=C/C(=O)Nc1cc2c(Nc3ccc(F)c(Cl)c3)ncnc2cc1O[C@H]1CCOC1 + C=CC(=O)N1CCN(c2nc(OCC3CCCN3C)nc3c2CCN(c2cccc4cccc(C)c24)C3)CC1CC#N
Curve of first compound, second compound 0.0316 µM
  IC50: > 100 nM
[1]
  IC50: > 100 nM
[2]
  IC50: > 100 nM
[3]
  IC50: > 100 nM
[4]
  IC50: < 0.316 nM
Second compound 0.0316 µM, first compound 0.000316 µM
  viability, T/C: 97.5%
Second compound 0.0316 µM, first compound 0.001 µM
  viability, T/C: 104%
Second compound 0.0316 µM, first compound 0.00316 µM
  viability, T/C: 75.7%
Second compound 0.0316 µM, first compound 0.01 µM
  viability, T/C: 73.5%
Second compound 0.0316 µM, first compound 0.0316 µM
  viability, T/C: 67.9%
Second compound 0.0316 µM, first compound 0.1 µM
  viability, T/C: 65.6%
Second compound 0.1 µM, first compound 0.000316 µM
  viability, T/C: 83.5%
Second compound 0.1 µM, first compound 0.001 µM
  viability, T/C: 89.3%
Second compound 0.1 µM, first compound 0.00316 µM
  viability, T/C: 98.8%
Second compound 0.1 µM, first compound 0.01 µM
  viability, T/C: 70.5%
[6]
  viability, T/C: 76.7%
[7]
  viability, T/C: 72.4%
Second compound 0.316 µM, first compound 0.000316 µM
  viability, T/C: 77.8%
Second compound 0.316 µM, first compound 0.001 µM
  viability, T/C: 73.2%
Second compound 0.316 µM, first compound 0.00316 µM
  viability, T/C: 65.9%
Second compound 0.316 µM, first compound 0.01 µM
  viability, T/C: 56.7%
[12]
  viability, T/C: 54.7%
[13]
  viability, T/C: 53.6%
Second compound 1 µM, first compound 0.000316 µM
  viability, T/C: 73.5%
Second compound 1 µM, first compound 0.001 µM
  viability, T/C: 85.1%
Second compound 1 µM, first compound 0.00316 µM
  viability, T/C: 70.4%
Second compound 1 µM, first compound 0.01 µM
  viability, T/C: 65.1%
[18]
  viability, T/C: 58.8%
[19]
  viability, T/C: 54.4%
Second compound 3.16 µM, first compound 0.000316 µM
  viability, T/C: 4.17%
Second compound 3.16 µM, first compound 0.001 µM
  viability, T/C: 3.27%
Second compound 3.16 µM, first compound 0.00316 µM
  viability, T/C: 1.28%
Second compound 3.16 µM, first compound 0.01 µM
  viability, T/C: 1.27%
[24]
  viability, T/C: 0.96%
[25]
  viability, T/C: 0.29%

## CC1(C)CCC(CN2CCN(c3ccc(C(=O)NS(=O)(=O)c4ccc(NCC5CCOCC5)c([N+](=O)[O-])c4)c(Oc4cnc5[nH]ccc5c4)c3)CC2)=C(c2ccc(Cl)cc2)C1
Compound 0.0316 µM
  viability, T/C: 99.7% [middle of 5 runs]
Compound 0.1 µM
  viability, T/C: 104% [middle of 5 runs]
Compound 0.316 µM
  viability, T/C: 105% [middle of 5 runs]
Compound 1 µM
  viability, T/C: 111% [middle of 5 runs]
Curve of compound
  IC50: 6.08 µM [middle of 5 runs]

## CCNC(=O)CC1N=C(c2ccc(Cl)cc2)c2cc(OC)ccc2-n2c(C)nnc21 (centres undefined) + C=CC(=O)N1CCN(c2nc(=O)n(-c3c(C)ccnc3C(C)C)c3nc(-c4c(O)cccc4F)c(F)cc23)C(C)C1
[1]
  IC50: 474 nM
[2]
  IC50: 1180 nM
[3]
  IC50: 1100 nM
[4]
  IC50: 741 nM
[5]
  IC50: 169 nM
[6]
  viability, T/C: 99.4%
[7]
  viability, T/C: 93.4%
[8]
  viability, T/C: 55.3%
[9]
  viability, T/C: 41.1%
[10]
  viability, T/C: 39.9%
[11]
  viability, T/C: 35.7%
[12]
  viability, T/C: 119%
[13]
  viability, T/C: 98.4%
[14]
  viability, T/C: 72.2%
[15]
  viability, T/C: 50%
[16]
  viability, T/C: 43.7%
[17]
  viability, T/C: 37.1%
[18]
  viability, T/C: 120%
[19]
  viability, T/C: 109%
[20]
  viability, T/C: 77%
[21]
  viability, T/C: 52.3%
[22]
  viability, T/C: 38.9%
[23]
  viability, T/C: 35.8%
[24]
  viability, T/C: 101%
[25]
  viability, T/C: 86.7%
[26]
  viability, T/C: 63%
[27]
  viability, T/C: 45.4%
[28]
  viability, T/C: 39.1%
[29]
  viability, T/C: 37.5%
[30]
  viability, T/C: 66.5%
[31]
  viability, T/C: 58.6%
[32]
  viability, T/C: 39.4%
[33]
  viability, T/C: 29%
[34]
  viability, T/C: 31.1%
